# Tests used:
# [1] = system: enterobacterium; assay: Stability against enterobacterium (feces / cecum homogenates); type: in vitro ADME; conditions: cynomolgus monkey feces and rat cecum homogenates, 3 and 30 μM, 37° C., 24 hours; all conditions
# Method: A culture medium was added to fresh feces of a cynomolgus monkey and rat cecum to prepare homogenates. To a homogenate was added the compound of the Example 2, or 1-{4-[5-(4-isopropoxyphenyl)-1,2,4-oxadiazol-3-yl]benzyl}azetidine-3-carboxylic acid (the compound of the Example 29 of Non-Patent Document 5) adjusted at a concentration of 3 and 30 μM, and the mixture was anaerobically cultured at 37° C. for 24 hours. After the cultivation, the concentration of the residual compound in the culture medium was measured on LC-MS.
# [2] = system: electrocardiogram; assay: Evaluation of electrocardiogram in a rat (under anesthesia); type: in vivo; conditions: anesthetized rat, intravenous 0.1 mg/kg body weight
# Method: Under anesthesia, femoral artery was cannulated in a 7-11-week-old male SD rat (Charles River Laboratories Japan Inc.) that had been reared for more than one week, connected to a polygraph (NIHON KODEN) via a pressure transducer. Without consciousness, a vehicle (dimethylsulfoxide) or a test compound was intravenously administered. After the administration, blood pressure, the heart rate, and electrocardiogram were monitored for about 10 minutes.
smiles,measurement,setting,value
"CC(C)Oc1ccc(-c2cnc(-c3ccc(CN4CC(C(=O)O)C4)cc3)s2)cc1 [Example 2, 1-(4-(5-(4-isopropoxyphenyl)thiazol-2-yl)benzyl)azetidine-3-carboxylic acid]",residual compound after anaerobic culture with homogenate,[1],remained almost completely intact
same,duration of continuous cardiac arrhythmia (AV block),[2],< 10 s
